Source: patent US10874101B2, “Tolerance improving agent for plants” (PHYTOCHROME INC., priority 2014, dated 2020)
Where two headings read alike, the source gives them in different places.

Key:
[1] = system: HSFA2 gene; test: Expression level of HSFA2 gene in Arabidopsis (qPCR); format: in vivo, Arabidopsis thaliana; conditions: for fold induction at 10 nmol/cm3: Arabidopsis thaliana, 0.5 h, read-out: relative transcription level (fold), HSFA2 gene
From the text: (§1) Total RNA was extracted using RNeasy Plant Mini Kit (Quiagen), and cDNA was successively synthesized using RevaTra Ace Kit (TOYOBO CO., LTD.).
(§2) HSFA2 gene and DREB2A gene were quantified using SYBR Green qPCR Mix (TOYOBO CO., LTD.), LineGene Real-time PCR detection system (BioFlux).
(§3) The primers used for each gene expression analysis are as described below.
Arabidopsis (Arabidopsis thaliana, Columbia-0) was exposed to the compound shown in Table 2 in a gaseous state (concentration 10 nmol/cm^3) for 30 min (temperature 23° C.), and the expression level of HSFA2 gene was analyzed.
(§4) Arabidopsis was seeded in artificial soil material “Jiffy-7” (SAKATA SEED CORPORATION), cultured for 14 hr in light period/10 hr in dark period at 23° C. for 2-3 weeks and used.

[2] = system: photochemical system II; test: Photosynthesis activity (Fv/Fm) of Arabidopsis; format: in vivo, Arabidopsis thaliana; conditions: gaseous state 25 nmol/cm^3, 120 min, 25° C., light 100 μmol/m^2·s, dark adaptation 5 min
Experimental: The photosynthesis activity was measured using the maximum quantum yield (Fv/Fm) of photochemical system II as an index. Test plant object was subjected to dark adaptation (for 5 min), and Fv/Fm was measured using photosynthesis measuring apparatus Junior-PAM (Walz). The measurement was performed at least three times for different sites of the leaf and the averaged numerical value was taken as photosynthesis activity.
Arabidopsis (Arabidopsis thaliana, Columbia-0) was exposed to the compound shown in Table 4 in a gaseous, state (concentration 25 nmol/cm^3) for 120 min (temperature 25° C.) in the presence of light (100 μmol/m^2·s), subjected to a dark adaptation treatment for 5 min, and photosynthesis activity (Fv/Fm) was measured.
as §4

[3] = system: Arabidopsis (Arabidopsis thaliana, Columbia-0); test: Survival rate of Arabidopsis after high temperature treatment; format: in vivo; conditions: gaseous state 10 nmol/cm^3 for 120 min, then 120 min at 40-45° C. in light; relative to non-exposure sample as 100(%)
Experimental: Arabidopsis (Arabidopsis thaliana, Columbia-0) was exposed to the compound shown in Table 3 in a gaseous state (concentration 10 nmol/cm^3) for 120 min, left standing for 120 min in an environmental control chamber (manufactured by NIPPON MEDICAL & CHEMICAL INSTRUMENTS CO., LTD.) set to 40-45° C. and in the presence of light (100 μmol/m^2·s), and the survival rate after lapse of 3 days was measured.
as §4
In Table 3, the survival rate is a relative value with the survival rate of a non-exposure sample (sample left standing at 45° C. for 120 min without exposure to the compound) as 100(%).

[4] = system: DREB2A gene; test: Expression level of DREB2A gene in rice (qPCR); format: in vivo, Oryza sativa; conditions: rice (Nipponbare), gaseous state 10 nmol/cm^3, 30 min, 25° C.; non-exposure as 1
Experimental: as §1, §2, §3
(§5) Rice (Oryza sativa, Nipponbare) was exposed to (E)-2-hexenal in a gaseous state (concentration 10 nmol/cm^3) for 30 min (temperature 25° C.), and the expression level of HSFA2 gene and DREB2A gene was analyzed. As a result, the expression level of HSFA2 gene was 3.55-fold (relative transcription level with non-exposure to (E)-2-hexenal as 1), and the expression level of DREB2A was 3.93-fold (relative transcription level with non-exposure to (E)-2-hexenal as 1).
(§6) The rice was seeded in artificial soil material “Jiffy-7” (SAKATA SEED CORPORATION), cultured for 14 hr in light period/10 hr in dark period at 23° C. for 2-3 weeks and used.

[5] = system: HSFA2 gene; test: Expression level of HSFA2 gene in rice (qPCR); format: in vivo, Oryza sativa; conditions: rice (Nipponbare), gaseous state 10 nmol/cm^3, 30 min, 25° C.; non-exposure as 1
Experimental: as §1, §2, §3, §5, §6

[6] = system: HSP17.6-A; test: Expression level of HSP gene HSP17.6-A in Arabidopsis (microarray); format: in vivo, Arabidopsis thaliana; conditions: gaseous state 10 nmol/cm^3, 30 min, 23° C., non-exposure as 1
Experimental: (§7) HSP gene was quantified by microarray analysis. The total RNA was extracted using RNeasy Plant Mini Kit (Quiagen), and double stranded cDNA was synthesized using Superscript Choice System (Life Technologies). cDNA was labeled with Cy3 by using NimbleGen One-color Labeling Kit (NimbleGen), and hybridized to DNA array (ATH6_60 mer_expr X4, NmibleGen) at 42° C. for 6 hr. DNA array was washed, Cy3 fluorescence intensity was measured by Axon GenePix 4000B scanner (NimbleGen) and quantified.
(§8) Arabidopsis (Arabidopsis thaliana, Columbia-0) was exposed to (E)-2-hexenal in a gaseous state (concentration 10 nmol/cm^3) for 30 min (temperature 23° C.), and the expression level of HSP genes (HSP17.6-C, HSP17.6-A) was analyzed.
as §4

[7] = system: HSFA2 gene; test: Expression level of HSFA2 gene in tomato (qPCR); format: in vivo, Solanum lycopersicum; conditions: tomato (Microtom), gaseous state 10 nmol/cm^3, 30 min, 25° C.; non-exposure as 1
Experimental: as §1, §2, §3
Tomato (Solanum lycopersicum, Microtom) was exposed to (E)-2-hexenal in a gaseous state (concentration 10 nmol/cm^3) for 30 min (temperature 25° C.), and the expression level of HSFA2 gene was analyzed to find 20.2-fold (relative transcription level with non-exposure to (E)-2-hexenal as 1).
The tomato was seeded in artificial soil material “Jiffy-7” (SAKATA SEED CORPORATION), cultured for 14 hr in light period/10 hr in dark period at 23° C. for 2-3 weeks and used.

[8] = system: HSP17.6-C; test: Expression level of HSP gene HSP17.6-C in Arabidopsis (microarray); format: in vivo, Arabidopsis thaliana; conditions: gaseous state 10 nmol/cm^3, 30 min, 23° C., non-exposure as 1
Experimental: as §7, §8, §4

[9] = Arabidopsis, gaseous state 10 nmol/cm^3, 30 min, 23° C., relative to acetonitrile as 1

Molecule	fold induction at 10 nmol/cm3 [1, 9]	photosynthesis activity (Fv/Fm) [2]	also measured
CCCCCC(C)=O [2-heptanone, reference compound]	1.1		
C=CC=O [2-propenal, reference compound]		0.393	
C/C=C/C=O [(E)-2-butenal]		0.726	relative transcription level (fold), HSFA2 gene [1, 9]: 469 fold; survival rate (%) after 3 days [3]: 140%
CCCCCCC/C=C/C=O [(E)-2-decenal]		0.753	
CCCC/C=C/C=O [(E)-2-heptenal]	642	0.748	
CCC/C=C/C=O [(E)-2-hexenal]		0.739	relative transcription level, DREB2A gene [4]: 3.93 fold; fold induction at 10 nmol/cm3 [1]: 377; survival rate (%) after 3 days [3]: 170%; relative transcription level, HSFA2 gene [5]: 3.55 fold; Relative transcription level (fold) HSP17.6-A [6]: 36.3 fold; relative transcription level, HSFA2 gene [7]: 20.2 fold; Relative transcription level (fold) HSP17.6-C [8]: 45.9 fold
CCC/C=C/CO [(E)-2-hexenol, reference compound]	0.735		
CCCCCC/C=C/C=O [(E)-2-nonenal]	488	0.741	
CCCCC/C=C/C=O [(E)-2-octenal]	777	0.732	
CC/C=C/C=O [(E)-2-pentenal]	470	0.710	
CCC/C=C/C(C)=O [(E)-3-hepten-2-one]	266		survival rate (%) after 3 days [3]: 159%
CC/C=C\CCC=O [(Z)-4-heptenal]	320	0.743	
CC/C=C\CCCCC=O [(Z)-6-nonenal]	270	0.745	
CC#N [acetonitrile, reference compound]		0.729	fold induction at 10 nmol/cm3 [1]: 1
n-hexenal [reference compound]			relative transcription level (fold), HSFA2 gene [1, 9]: 7.9 fold
